Source: patent US10703764B2, “Benzopiperazine compositions as BET bromodomain inhibitors” (FORMA Therapeutics, Inc., priority 2013, dated 2020)

How the values were obtained:
BRD4 BD1 = target: T1, BRD4 BD1 (Homo sapiens, UniProt O60885); assay: AlphaScreen binding assay, BRD4 Bromodomain 1
T1 construct: made in house
Procedure, shortened: (§1)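 Compound dilution series were mixed with His-tagged BRD4 bromodomain and biotinylated tetra-acetylated H4 (1-21) peptide at pH 7.3 (BD1 and peptide at 50 nM, BD2 and peptide at 100 nM). Donor and acceptor beads were then added, and plates were equilibrated at least 1 h before reading. IC50 values were fitted with a four-parameter logistic model.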

BRD4 BD2 = target: T2, BRD4 BD2 (Homo sapiens, UniProt O60885); assay: AlphaScreen binding assay, BRD4 Bromodomain 2
T2 construct: made in house
Procedure, shortened: as §1

Row | IC50 (BRD4 BD1) | IC50 (BRD4 BD2) | SMILES
1 | 1000 to 10000 nM | < 50 nM | CC(=O)N1c2ccc(-c3cccc(-c4noc(C)n4)c3)cc2N(C(=O)c2ccco2)C[C@@H]1C [Example I-402]
2 | 1000 to 10000 nM | 50 to 500 nM | CC(=O)N1c2ccc(-c3nnc(C)s3)cc2N(C(=O)c2ccco2)C[C@@H]1C [Example I-403]
3 | 1000 to 10000 nM | 50 to 500 nM | CC(=O)N1c2ccc(-c3ccc4nn(C)cc4c3)cc2N(C(=O)c2ccco2)C[C@@H]1C [Example I-404]
4 | 1000 to 10000 nM | 50 to 500 nM | CC(=O)N1c2ccc(-c3cccc(-c4ncccn4)c3)cc2N(C(=O)c2ccco2)C[C@@H]1C [Example I-405]
5 | > 10000 nM | > 500 nM | CC(=O)N1c2ccc(-c3ccn4ccnc4n3)cc2N(C(=O)c2ccco2)C[C@@H]1C [Example I-406]
6 | 1000 to 10000 nM | > 500 nM | CC(=O)N1c2ccc(C(=O)c3ccccc3)cc2N(C(=O)c2ccco2)C[C@@H]1C [Example I-408]
7 | 1000 to 10000 nM | 50 to 500 nM | CC(=O)N1c2ccc(-c3ccc(=O)n(C)c3)cc2N(C(=O)c2ccco2)C[C@@H]1C [Example I-411]
8 | 1000 to 10000 nM | < 50 nM | CC(=O)N1c2ccc(-c3ccc(-c4nnco4)cc3)cc2N(C(=O)c2ccco2)C[C@@H]1C [Example I-416]
9 | 1000 to 10000 nM | < 50 nM | CC(=O)N1c2ccc(-c3ccc(CS(N)(=O)=O)cc3)cc2N(C(=O)c2ccco2)C[C@@H]1C [Example I-418]
10 | 100 to 1000 nM | > 500 nM | CC(=O)N1c2ccc(-c3cnn(C)n3)cc2N(C(=O)c2ccco2)C[C@@H]1C [Example I-419]
11 | 100 to 1000 nM | < 50 nM | CC(=O)N1c2ccc(-c3ccc(-c4cc(C(=O)O)[nH]n4)cc3)cc2N(C(=O)c2ccco2)CC1C (stereo not drawn) [Example I-421]
12 | 100 to 1000 nM | < 50 nM | CC(=O)N1c2ccc(-c3ccc(N4CCCS4(=O)=O)cc3)cc2N(C(=O)c2ccco2)C[C@@H]1C [Example I-424]
13 | > 10000 nM | > 500 nM | CC(=O)N1c2ccc(-c3ncc(N)s3)cc2N(C(=O)c2ccco2)C[C@@H]1C [Example I-431]
14 | 100 to 1000 nM | 50 to 500 nM | CC(=O)N1c2ccc(-c3cnsc3)cc2N(C(=O)c2ccco2)C[C@@H]1C [Example I-432]
15 | 100 to 1000 nM | 50 to 500 nM | CC(=O)N1c2ccc(-c3ccc(S(=O)(=O)CC(=O)N(C)C)cc3)cc2N(C(=O)c2ccco2)C[C@@H]1C [Example I-433]
16 | 1000 to 10000 nM | 50 to 500 nM | CC(=O)N1c2ccc(-c3ccns3)cc2N(C(=O)c2ccco2)C[C@@H]1C [Example I-434]
17 | 100 to 1000 nM | 50 to 500 nM | C[C@H]1CN(C(=O)C2CC2)c2cc(-c3ccc(N4CCCS4(=O)=O)cc3)ccc2N1C(=O)C1CC1 [Example I-440]
18 | 100 to 1000 nM | 50 to 500 nM | CC(=O)N1c2ccc(-c3cnc(N)cn3)cc2N(C(=O)C2CC2)C[C@@H]1C [Example I-441]
19 | 1000 to 10000 nM | 50 to 500 nM | C[C@H]1CN(C(=O)C2CC2)c2cc(-c3cnc(N)cn3)ccc2N1C(=O)C1CC1 [Example I-442]
20 | 100 to 1000 nM | 50 to 500 nM | C[C@H]1CN(C(=O)C2CC2)c2cc(-c3ccc(C4(O)COC4)cc3)ccc2N1C(=O)C1CC1 [Example I-444]
21 | 100 to 1000 nM | 50 to 500 nM | C[C@H]1CN(C(=O)C2CC2)c2cc(-c3ccc(CS(N)(=O)=O)cc3)ccc2N1C(=O)C1CC1 [Example I-446]
22 | 100 to 1000 nM | < 50 nM | C[C@H]1CN(C(=O)C2CC2)c2cc(-c3ccc(S(=O)(=O)CCN)cc3)ccc2N1C(=O)C1CC1 [Example I-448]
23 | 1000 to 10000 nM | 50 to 500 nM | C[C@H]1CN(C(=O)C2CC2)c2cc(-c3ccc(S(=O)(=O)CCO)cc3)ccc2N1C(=O)C1CC1 [Example I-450]

Row | IC50 (BRD4 BD1) | IC50 (BRD4 BD2) | SMILES
24 | 100 to 1000 nM | 50 to 500 nM | CC(=O)N1c2ccc(-c3ccc(C(=O)NCCN)cc3)cc2N(C(=O)C2CC2)C[C@@H]1C [Example I-451]
25 | 1000 to 10000 nM | 50 to 500 nM | C[C@H]1CN(C(=O)C2CC2)c2cc(-c3ccc(C(=O)NCCN)cc3)ccc2N1C(=O)C1CC1 [Example I-452]
26 | 1000 to 10000 nM | 50 to 500 nM | CC(=O)N1c2ccc(-c3cn(C)nn3)cc2N(C(=O)C2CC2)C[C@@H]1C [Example I-453]
27 | 1000 to 10000 nM | 50 to 500 nM | C[C@H]1CN(C(=O)C2CC2)c2cc(-c3cn(C)nn3)ccc2N1C(=O)C1CC1 [Example I-454]
28 | 1000 to 10000 nM | 50 to 500 nM | COC(=O)N1c2ccc(-c3ccc(N4CCCS4(=O)=O)cc3)cc2N(C(=O)C2CC2)C[C@@H]1C [Example I-457]
29 | 1000 to 10000 nM | 50 to 500 nM | COC(=O)N1c2ccc(-c3cnc(N)cn3)cc2N(C(=O)C2CC2)C[C@@H]1C [Example I-458]
30 | 1000 to 10000 nM | 50 to 500 nM | COC(=O)N1c2ccc(-c3ccc(C4(O)COC4)cc3)cc2N(C(=O)C2CC2)C[C@@H]1C [Example I-459]
31 | 1000 to 10000 nM | 50 to 500 nM | COC(=O)N1c2ccc(-c3ccc(CS(N)(=O)=O)cc3)cc2N(C(=O)C2CC2)C[C@@H]1C [Example I-460]
32 | 1000 to 10000 nM | 50 to 500 nM | COC(=O)N1c2ccc(-c3ccc(S(=O)(=O)CCN)cc3)cc2N(C(=O)C2CC2)C[C@@H]1C [Example I-461]
33 | 1000 to 10000 nM | 50 to 500 nM | COC(=O)N1c2ccc(-c3ccc(S(=O)(=O)CCO)cc3)cc2N(C(=O)C2CC2)C[C@@H]1C [Example I-462]
34 | 1000 to 10000 nM | 50 to 500 nM | COC(=O)N1c2ccc(-c3ccc(C(=O)NCCN)cc3)cc2N(C(=O)C2CC2)C[C@@H]1C [Example I-463]
35 | 1000 to 10000 nM | 50 to 500 nM | COC(=O)N1c2ccc(-c3cn(C)nn3)cc2N(C(=O)C2CC2)C[C@@H]1C [Example I-464]
36 | 100 to 1000 nM | > 500 nM | CC(C)OC(=O)N1C[C@H](C)N(C(=O)C2CC2)c2ccc(-c3ccc(C(=O)NCCN)cc3)cc21 [Example I-481]
37 | 100 to 1000 nM | > 500 nM | COC(=O)N1c2ccc(-c3ccc(N4CCCS4(=O)=O)cc3)cc2N(C(=O)OC(C)C)C[C@@H]1C [Example I-484]
38 | 100 to 1000 nM | > 500 nM | COC(=O)N1c2ccc(-c3ccc(CS(N)(=O)=O)cc3)cc2N(C(=O)OC(C)C)C[C@@H]1C [Example I-487]
39 | 100 to 1000 nM | 50 to 500 nM | COC(=O)N1c2ccc(-c3ccc(S(=O)(=O)CCN)cc3)cc2N(C(=O)OC(C)C)C[C@@H]1C [Example I-488]
40 | 1000 to 10000 nM | > 500 nM | COC(=O)N1c2ccc(-c3ccc(C(=O)NCCN)cc3)cc2N(C(=O)OC(C)C)C[C@@H]1C [Example I-489]
41 | 1000 to 10000 nM | 50 to 500 nM | CC(=O)N1c2ccc(-c3ncco3)cc2N(C(=O)c2ccco2)C[C@@H]1C [Example I-491]
42 | 100 to 1000 nM | < 50 nM | CC(=O)N1c2ccc(-c3ccc(N(C)S(C)(=O)=O)cc3)cc2N(C(=O)c2ccco2)C[C@@H]1C [Example I-492]
43 | 1000 to 10000 nM | > 500 nM | CC(=O)N1c2ccc(-c3ccc(S(C)(=O)=O)cc3)cc2N(C(=O)OC2COC2)C[C@@H]1C [Example I-497]
44 | 1000 to 10000 nM | 50 to 500 nM | COc1ccc(OC(=O)N2C[C@H](C)N(C(C)=O)c3ccc(-c4cnn(C5CC5)c4)cc32)c(Cl)c1 [Example I-505]
45 | 1000 to 10000 nM | 50 to 500 nM | CC(=O)N1c2ccc(-c3cnn(C4CC4)c3)cc2N(C(=O)Oc2cccnc2C)C[C@@H]1C [Example I-514]
